In ChEMBL document CHEMBL1933041, “Synthesis and biological evaluation of substituted pyrazoles as blockers of divalent metal transporter 1 (DMT1)” (Bioorg Med Chem Lett, 2012) one finds Papp B→A and Papp A→B data, which are given here for 32 compounds.

A short description of the first series: Permeability from basolateral to apical side in human Caco2 cells. It counts as ADME, cell-based. To be noted: Caco-2, read-out: permeability. (Caco-2 cells form a polarised layer with tight junctions and transporters.)
As to `Cc1[nH]n(-c2ccccn2)c(=O)c1C(=O)Nc1ccccc1[N+](=O)[O-]`, the Papp B→A amounted to 15.5 ×10⁻⁶ cm/s.

Take `Cc1nn(-c2ccccn2)c(O)c1-c1ccccc1`: the Papp B→A was determined as 16.7 ×10⁻⁶ cm/s.

Consider `N#Cc1ccc2c(c1)CCc1nn(-c3ccccn3)c(O)c1-2`, for which the Papp B→A worked out at 13.1 ×10⁻⁶ cm/s.

`Cc1[nH]n(-c2ccccn2)c(=O)c1C(=O)Nc1ccccc1C(F)(F)F`: the Papp B→A is 14.2 ×10⁻⁶ cm/s.

Consider `Cc1ccc(NC(=O)c2c(C)[nH]n(-c3ccccn3)c2=O)cc1`, for which the Papp B→A stood at 15.3 ×10⁻⁶ cm/s.

Regarding `Cc1[nH]n(-c2ccccn2)c(=O)c1C(=O)Nc1ccc(C(F)(F)F)cc1`, the Papp B→A came out at 3.9 ×10⁻⁶ cm/s.

As to `Cc1[nH]n(-c2ccccn2)c(=O)c1C(=O)Nc1ccc([N+](=O)[O-])cc1`, the Papp B→A worked out at 11.5 ×10⁻⁶ cm/s.

Turning to `Cc1nn(-c2nc3ccccc3[nH]2)c(O)c1-c1ccccc1`, the Papp B→A was 13.5 ×10⁻⁶ cm/s.

For the compound `Cc1[nH]n(-c2ccccn2)c(=O)c1C(=O)Nc1ccc2c(c1)OCO2`, the Papp B→A turned out to be 20.8 ×10⁻⁶ cm/s.

Regarding `Cc1[nH]n(-c2nccs2)c(=O)c1-c1ccccc1`, the Papp B→A amounted to 23.8 ×10⁻⁶ cm/s.

Consider `Cc1[nH]n(-c2ccccn2)c(=O)c1-c1ccc(C#N)cc1`, for which the Papp B→A came out at 27.8 ×10⁻⁶ cm/s.

Consider `Cc1[nH]n(-c2ccccn2)c(=O)c1-c1cccc(C(F)(F)F)c1`, for which the Papp B→A came out at 5.8 ×10⁻⁶ cm/s.

In the case of `COc1cccc(NC(=O)c2c(C)[nH]n(-c3ccccn3)c2=O)c1`, the Papp B→A turned out to be 15.4 ×10⁻⁶ cm/s.

As to `Oc1c2c(nn1-c1ccccn1)CCc1ccccc1-2`, the Papp B→A came to 11.7 ×10⁻⁶ cm/s.

Regarding `COc1ccc(NC(=O)c2c(C)[nH]n(-c3ccccn3)c2=O)cc1F`, the Papp B→A came out at 13.2 ×10⁻⁶ cm/s.

For the compound `COc1ccc(-c2c(C)[nH]n(-c3ccccn3)c2=O)cc1`, the Papp B→A was 16.3 ×10⁻⁶ cm/s.

On to `Oc1c2c(nn1-c1nc3ccccc3s1)CCc1ccccc1-2`, for which the Papp B→A came out at 24 ×10⁻⁶ cm/s.

`Oc1c2c(nn1-c1ccccn1)CCc1cc(-c3ccccc3)ccc1-2`: the Papp B→A is 0.9 ×10⁻⁶ cm/s.

For the compound `COc1ccc2nc(-n3nc4c(c3O)-c3ccccc3CC4)sc2c1`, the Papp B→A was determined as 16.7 ×10⁻⁶ cm/s.

For `Cc1nn(-c2nc3ccccc3s2)c(O)c1-c1ccccc1`, the Papp B→A worked out at 6.6 ×10⁻⁶ cm/s.

As to `Oc1c2c(nn1-c1nc3ccc(F)cc3s1)CCc1ccccc1-2`, the Papp B→A was found to be 1.1 ×10⁻⁶ cm/s.

Take `Oc1c2c(nn1-c1ccccn1)CCc1cc(Br)ccc1-2`: the Papp B→A turned out to be 7.6 ×10⁻⁶ cm/s.

Take `Cc1[nH]n(-c2ccccn2)c(=O)c1C(=O)Nc1cccc(C(F)(F)F)c1`: the Papp B→A turned out to be 8.9 ×10⁻⁶ cm/s.

As for `Cc1[nH]n(-c2ccccn2)c(=O)c1-c1ccc(C(F)(F)F)cc1`, the Papp B→A is 7.9 ×10⁻⁶ cm/s.

Take `Cc1[nH]n(-c2ccccn2)c(=O)c1-c1ccc([N+](=O)[O-])cc1`: the Papp B→A is 5.6 ×10⁻⁶ cm/s.

On to `Oc1c2c(nn1-c1nc3ccccc3[nH]1)CCc1ccccc1-2`, for which the Papp B→A was 6.3 ×10⁻⁶ cm/s.

Consider `Cc1[nH]n(-c2nc3ccc(F)cc3s2)c(=O)c1-c1ccccc1`, for which the Papp B→A was determined as 20.1 ×10⁻⁶ cm/s.

On to `Cc1[nH]n(-c2ccccn2)c(=O)c1-c1ccc(F)cc1`, for which the Papp B→A is 15.9 ×10⁻⁶ cm/s.

Consider `Cc1[nH]n(-c2ccccn2)c(=O)c1C(=O)Nc1ccccc1`, for which the Papp B→A worked out at 19.6 ×10⁻⁶ cm/s.

As for `CCN(CC)c1ccc(/C=C2\C(=O)N(c3ccccn3)N=C2C)cc1`, the Papp B→A was 0.6 ×10⁻⁶ cm/s.

In the case of `Cc1ccc2nc(-n3nc4c(c3O)-c3ccccc3CC4)sc2c1`, the Papp B→A worked out at 3.4 ×10⁻⁶ cm/s.

As for `Cc1cccc(NC(=O)c2c(C)[nH]n(-c3ccccn3)c2=O)c1`, the Papp B→A was 15.6 ×10⁻⁶ cm/s.

A further series is described as follows: Permeability from apical to basolateral side in human Caco2 cells. It counts as ADME, cell-based. The following applies: Caco-2, read-out: permeability.
As for `Cc1[nH]n(-c2ccccn2)c(=O)c1C(=O)Nc1ccccc1[N+](=O)[O-]`, the Papp A→B was 11.2 ×10⁻⁶ cm/s.

`Cc1nn(-c2ccccn2)c(O)c1-c1ccccc1`: the Papp A→B was 8.2 ×10⁻⁶ cm/s.

As for `N#Cc1ccc2c(c1)CCc1nn(-c3ccccn3)c(O)c1-2`, the Papp A→B is 2.3 ×10⁻⁶ cm/s.

Take `Cc1[nH]n(-c2ccccn2)c(=O)c1C(=O)Nc1ccccc1C(F)(F)F`: the Papp A→B was determined as 7.8 ×10⁻⁶ cm/s.

`Cc1ccc(NC(=O)c2c(C)[nH]n(-c3ccccn3)c2=O)cc1`: the Papp A→B turned out to be 6.1 ×10⁻⁶ cm/s.

On to `Cc1[nH]n(-c2ccccn2)c(=O)c1C(=O)Nc1ccc(C(F)(F)F)cc1`, for which the Papp A→B worked out at 0.6 ×10⁻⁶ cm/s.

For the compound `Cc1[nH]n(-c2ccccn2)c(=O)c1C(=O)Nc1ccc([N+](=O)[O-])cc1`, the Papp A→B came to 7.6 ×10⁻⁶ cm/s.

Consider `Cc1nn(-c2nc3ccccc3[nH]2)c(O)c1-c1ccccc1`, for which the Papp A→B came out at 10.1 ×10⁻⁶ cm/s.

Consider `Cc1[nH]n(-c2ccccn2)c(=O)c1C(=O)Nc1ccc2c(c1)OCO2`, for which the Papp A→B is 9.3 ×10⁻⁶ cm/s.

With `Cc1[nH]n(-c2nccs2)c(=O)c1-c1ccccc1`, the Papp A→B is 23.9 ×10⁻⁶ cm/s.

For the compound `Cc1[nH]n(-c2ccccn2)c(=O)c1-c1ccc(C#N)cc1`, the Papp A→B was 21.4 ×10⁻⁶ cm/s.

Consider `Cc1[nH]n(-c2ccccn2)c(=O)c1-c1cccc(C(F)(F)F)c1`, for which the Papp A→B worked out at 7 ×10⁻⁶ cm/s.

Consider `COc1cccc(NC(=O)c2c(C)[nH]n(-c3ccccn3)c2=O)c1`, for which the Papp A→B was found to be 9 ×10⁻⁶ cm/s.

Take `Oc1c2c(nn1-c1ccccn1)CCc1ccccc1-2`: the Papp A→B turned out to be 8.9 ×10⁻⁶ cm/s.

In the case of `COc1ccc(NC(=O)c2c(C)[nH]n(-c3ccccn3)c2=O)cc1F`, the Papp A→B stood at 6.6 ×10⁻⁶ cm/s.

In the case of `COc1ccc(-c2c(C)[nH]n(-c3ccccn3)c2=O)cc1`, the Papp A→B is 12.7 ×10⁻⁶ cm/s.

Take `Oc1c2c(nn1-c1nc3ccccc3s1)CCc1ccccc1-2`: the Papp A→B turned out to be 20.8 ×10⁻⁶ cm/s.

Take `Oc1c2c(nn1-c1ccccn1)CCc1cc(-c3ccccc3)ccc1-2`: the Papp A→B is 0.1 ×10⁻⁶ cm/s.

As for `COc1ccc2nc(-n3nc4c(c3O)-c3ccccc3CC4)sc2c1`, the Papp A→B worked out at 12.7 ×10⁻⁶ cm/s.

For the compound `Cc1nn(-c2nc3ccccc3s2)c(O)c1-c1ccccc1`, the Papp A→B was determined as 6.7 ×10⁻⁶ cm/s.

Consider `Oc1c2c(nn1-c1nc3ccc(F)cc3s1)CCc1ccccc1-2`, for which the Papp A→B was 4.3 ×10⁻⁶ cm/s.

In the case of `Oc1c2c(nn1-c1ccccn1)CCc1cc(Br)ccc1-2`, the Papp A→B was determined as 3.2 ×10⁻⁶ cm/s.

As for `Cc1[nH]n(-c2ccccn2)c(=O)c1C(=O)Nc1cccc(C(F)(F)F)c1`, the Papp A→B is 4.5 ×10⁻⁶ cm/s.

As for `Cc1[nH]n(-c2ccccn2)c(=O)c1-c1ccc(C(F)(F)F)cc1`, the Papp A→B was found to be 3.1 ×10⁻⁶ cm/s.

Regarding `Cc1[nH]n(-c2ccccn2)c(=O)c1-c1ccc([N+](=O)[O-])cc1`, the Papp A→B amounted to 3.5 ×10⁻⁶ cm/s.

For `Oc1c2c(nn1-c1nc3ccccc3[nH]1)CCc1ccccc1-2`, the Papp A→B came out at 5.1 ×10⁻⁶ cm/s.

Take `Cc1[nH]n(-c2nc3ccc(F)cc3s2)c(=O)c1-c1ccccc1`: the Papp A→B turned out to be 16.8 ×10⁻⁶ cm/s.

Take `Cc1[nH]n(-c2ccccn2)c(=O)c1-c1ccc(F)cc1`: the Papp A→B turned out to be 11.2 ×10⁻⁶ cm/s.

`Cc1[nH]n(-c2ccccn2)c(=O)c1C(=O)Nc1ccccc1`: the Papp A→B was 10.4 ×10⁻⁶ cm/s.

As for `CCN(CC)c1ccc(/C=C2\C(=O)N(c3ccccn3)N=C2C)cc1`, the Papp A→B was determined as 0.3 ×10⁻⁶ cm/s.

As to `Cc1ccc2nc(-n3nc4c(c3O)-c3ccccc3CC4)sc2c1`, the Papp A→B is 5.2 ×10⁻⁶ cm/s.

Turning to `Cc1cccc(NC(=O)c2c(C)[nH]n(-c3ccccn3)c2=O)c1`, the Papp A→B worked out at 9.9 ×10⁻⁶ cm/s.
